Measurements as given in patent US4847300A, “Use of alpha-2I selective adrenergic receptor agonists in memory enhancement” (priority 1986, dated 1989).
Read-outs that look alike come from different tables or passages of the source.

What was measured:
alpha-2R subtype [1] = details: cited from earlier work
aged monkeys [2] = test: variable delayed response task (spatial working memory) in aged monkeys; details: for average optimal dose for improving memory: aged monkeys; for average optimal dose for improving memory / Optimal dose: equimolar clonidine dose; for Delayed Response Performance (% change from placebo control): mean; for aged monkeys with improved memory: applicants' experiments; for Percent Improvement: at individual optimal dose; for Optimal dose: i.m.; for dose range in which effective: memory improvement, summary statement
alpha-2R subtype [3] = details: alpha-2R vs alpha-2I
From the text: Receptor binding data provides evidence for two distinct alpha-2 receptor sub-types, C. […] One subtype binds with high affinity to the antagonist idazoxan, and is referred to as the "alpha-2I subtype"; the other subtype binds with high affinity to both idazoxan and to the antagonist, rauwolscine, and is referred to as the "alpha-2R subtype".

alpha-2I subtype = details: second figure of the alpha-2R/alpha-2I Ki ratio; cited from earlier work
aged monkeys [4] = test: blood pressure study in awake chaired aged monkeys; format: in vivo, rhesus monkeys; details: for drop in systolic blood pressure: at the high doses optimal for memory improvement; for Systolic Blood Pressure, change vs placebo control: mean
Experimental: In order to measure blood pressure in the awake, behaving monkey, three aged animals were adapted to primate chair restraint for several weeks. Blood pressure was measured using a pediatric digital blood pressure monitor. Each day the animals were […] immediately injected with the drug or saline. Fifteen minutes later, three blood pressure measurements were taken. […] Following memory testing, three more blood pressure measurements were taken before the monkey was returned to its home cage. The average blood pressure response before and after memory testing was calculated; drug response was compared to the previous response on saline Drug administration was initiated only after a stable blood pressure baseline was apparent.

aged monkeys [5] = details: early experiments, Science 230, 1273 (1985); cited from earlier work
rhesus monkeys = details: catecholamine-depleted association cortex; cited from earlier work
Korsakoff patients = details: about 0.01 to 0.02 mg/kg/day for two weeks; cited from earlier work
aged monkeys [6] = details: for Sedation Score (0-IV): mean
From the text: Sedation was rated using a 5 point scale where 0=normal level of arousal, I=quiet, II=sedated, III=intermittent sleeping and IV=too sedated to test.

Alzheimer patients = details: acute administration; study was terminated; cited from earlier work
aged monkeys [7] = details: 0.01 to 0.09 mg/kg; background; cited from earlier work
[8] = clinical blood pressure studies; cited from earlier work
[9] = dose .0001 mg/kg i.m. (equimolar clonidine dose)
[10] = dose .001 mg/kg i.m. (equimolar clonidine dose)
[11] = dose .01 mg/kg i.m. (equimolar clonidine dose)
[12] = dose .05 mg/kg i.m. (equimolar clonidine dose)

For `C=CCN1CCc2nc(N)sc2CC1` [BHT-920], the Ki (alpha-2R subtype [1]) is listed as 62.2 nM, the “average optimal dose for improving memory” value (“average optimal dose” below) (aged monkeys [2]) is listed as 70 µg/kg and the “Delayed Response Performance (% change from placebo control)” value (aged monkeys [2]; [9]) is listed as 0%. The “Delayed Response Performance (% change from placebo control)” value (aged monkeys [2]; [10]) was -3%, the “Delayed Response Performance (% change from placebo control)” value (aged monkeys [2]; [11]) was “+9%” and the “Delayed Response Performance (% change from placebo control)” value (aged monkeys [2]; [12]) was “+8%”. For the same molecule, the “Delayed Response Performance (% change from placebo control)” value (aged monkeys [2]; dose .08 mg/kg i.m. (equimolar clonidine dose)) was “+15%”, the “selectivity for the alpha-2R subtype” value (alpha-2R subtype [3]) was “two times more selective” and the Ki (alpha-2I subtype) was 138 nM. For the same molecule, the “drop in systolic blood pressure” value (aged monkeys [4]) was “greater than 50 mm Hg”, the “Systolic Blood Pressure, change vs placebo control” value (from here on “Systolic Blood Pressure, change”) (aged monkeys [4]; dose .0001 mg/kg i.m.) was -9 mm Hg and the “Systolic Blood Pressure, change” value (aged monkeys [4]; dose .001 mg/kg i.m.) was -8 mm Hg. For the same molecule, the “Systolic Blood Pressure, change” value (aged monkeys [4]; dose .01 mg/kg i.m.) was -37 mm Hg, the “Systolic Blood Pressure, change” value (aged monkeys [4]; dose .05 mg/kg i.m.) was over -50 mm Hg and the “hypotensive effects compared with the other agonists” value (aged monkeys [4]; monkey #445, FIG. 3) was “very similar to those of clonidine”.

For `Clc1cccc(Cl)c1N=C1NCCN1` [Clonidine, clonidine], the “aged monkeys with improved memory” value (aged monkeys [5]) is given as 5/5, the “effect on behavioral deficit in spatial delayed alternation” value (from here on “effect on behavioral deficit”) (rhesus monkeys) is given as “pharmacologically reversed” and the Ki (alpha-2R subtype [1]) is given as 27.7 nM. The “effect on memory performance” value (Korsakoff patients) was “improved memory performance”, the “average optimal dose” value (aged monkeys [2]) was 50 µg/kg and the “aged monkeys with improved memory” value (aged monkeys [2]) was 8. For the same molecule, the effect on memory (aged monkeys [2]; dose 0.0001 to 0.01 mg/kg) was “often impaired memory”, the “Delayed Response Performance (% change from placebo control)” value (aged monkeys [2]; [9]) was -6% and the “Delayed Response Performance (% change from placebo control)” value (aged monkeys [2]; [10]) was “+3%”. The “Delayed Response Performance (% change from placebo control)” value (aged monkeys [2]; [11]) was “+6%”, the “Delayed Response Performance (% change from placebo control)” value (aged monkeys [2]; [12]) was “+12%” and the “Percent Improvement” value (aged monkeys [2]; monkey #107) was 27%. The Optimal dose (aged monkeys [2]; monkey #107) was 10 µg/kg, the “Percent Improvement” value (aged monkeys [2]; monkey #113) was 30% and the Optimal dose (aged monkeys [2]; monkey #113) was 50 µg/kg. For the same molecule, the “Percent Improvement” value (aged monkeys [2]; monkey #121) was 17%, the Optimal dose (aged monkeys [2]; monkey #121) was 5 µg/kg and the “Percent Improvement” value (aged monkeys [2]; monkey #124) was 23%. The Optimal dose (aged monkeys [2]; monkey #124) was 40 µg/kg, the “Percent Improvement” value (aged monkeys [2]; monkey #343) was 30% and the Optimal dose (aged monkeys [2]; monkey #343) was 200 µg/kg. For the same molecule, the “Percent Improvement” value (aged monkeys [2]; monkey #444) was 25%, the Optimal dose (aged monkeys [2]; monkey #444) was 30 µg/kg and the “Percent Improvement” value (aged monkeys [2]; monkey #445) was 18%. For the same molecule, the Optimal dose (aged monkeys [2]; monkey #445) was 40 µg/kg, the “Percent Improvement” value (aged monkeys [2]; monkey #446) was 17% and the Optimal dose (aged monkeys [2]; monkey #446) was 80 µg/kg. The “Percent Improvement” value (aged monkeys [2]; monkey #447) was 23%, the Optimal dose (aged monkeys [2]; monkey #447) was 60 µg/kg and the “Percent Improvement” value (aged monkeys [2]; monkey #448) was 30%. For the same molecule, the Optimal dose (aged monkeys [2]; monkey #448) was 70 µg/kg, the “Percent Improvement” value (aged monkeys [2]; monkey #449) was 23% and the Optimal dose (aged monkeys [2]; monkey #449) was 1 µg/kg. For the same molecule, the “Sedation Score (0-IV)” value (aged monkeys [6]; dose .0001 mg/kg i.m.) was 0, the “Sedation Score (0-IV)” value (aged monkeys [6]; dose .001 mg/kg i.m.) was 0 and the “Sedation Score (0-IV)” value (aged monkeys [6]; dose .01 mg/kg i.m.) was “I”. The “Sedation Score” value (aged monkeys [6]; monkey #121, at individual optimal dose) was 0, the “Sedation Score” value (aged monkeys [6]; monkey #445, at individual optimal dose) was “I” and the “Sedation Score” value (aged monkeys [6]; monkey #449, at individual optimal dose) was 0. For the same molecule, the side effects (Alzheimer patients) was “severe hypotension and sedation”, the Ki (alpha-2I subtype) was 38.1 nM and the “drop in systolic blood pressure” value (aged monkeys [4]) was “greater than 50 mm Hg”. The “Systolic Blood Pressure, change” value (aged monkeys [4]; dose .0001 mg/kg i.m.) was -23 mm Hg, the “Systolic Blood Pressure, change” value (aged monkeys [4]; dose .001 mg/kg i.m.) was -8 mm Hg and the “Systolic Blood Pressure, change” value (aged monkeys [4]; dose .01 mg/kg i.m.) was -32 mm Hg. For the same molecule, the “Systolic Blood Pressure, change” value (aged monkeys [4]; dose .05 mg/kg i.m.) was over -50 mm Hg and the “side effects at memory-enhancing doses” value (aged monkeys [7]) was “profound hypotension and sedation”.

In the case of `N=C(N)N/N=C/c1c(Cl)cccc1Cl` [Guanabenz, guanabenz], the Ki (alpha-2R subtype [1]) is given as 36.7 nM, the “Delayed Response Performance (% change from placebo control)” value (aged monkeys [2]; dose .00000005 mg/kg i.m. (equimolar clonidine dose)) is given as “+8%” and the “Delayed Response Performance (% change from placebo control)” value (aged monkeys [2]; dose .00001 mg/kg i.m. (equimolar clonidine dose)) is given as -1%. The “Delayed Response Performance (% change from placebo control)” value (aged monkeys [2]; [9]) was “+1%”, the “Delayed Response Performance (% change from placebo control)” value (aged monkeys [2]; [10]) was -2% and the “Delayed Response Performance (% change from placebo control)” value (aged monkeys [2]; [11]) was “+7%”. The “Delayed Response Performance (% change from placebo control)” value (aged monkeys [2]; [12]) was “+7%”, the “dose range in which effective” value (aged monkeys [2]) was “picogram/kg range” and the “doses at which memory improved” value (aged monkeys [2]; monkey #445, FIG. 3) was 5e-05 to 10 µg/kg. The “Sedation Score (0-IV)” value (aged monkeys [6]; dose .00000005 mg/kg i.m.) was 0, the “Sedation Score (0-IV)” value (aged monkeys [6]; dose .00001 mg/kg i.m.) was 0 and the “Sedation Score (0-IV)” value (aged monkeys [6]; dose .0001 mg/kg i.m.) was 0. For the same molecule, the “Sedation Score (0-IV)” value (aged monkeys [6]; dose .001 mg/kg i.m.) was 0, the “Sedation Score (0-IV)” value (aged monkeys [6]; dose .01 mg/kg i.m.) was 0 and the “Sedation Score (0-IV)” value (aged monkeys [6]; dose .05 mg/kg i.m.) was “I”. For the same molecule, the Ki (alpha-2I subtype) was 5.3 nM and the “hypotensive effects compared with the other agonists” value (aged monkeys [4]; rhesus monkey, in vivo) was “more hypotensive side effects than guanfacine, but fewer side effects than clonidine”.

For `N=C(N)NC(=O)Cc1c(Cl)cccc1Cl` [Guanfacine, guanfacine], the Ki (alpha-2R subtype [1]) is listed as 340 nM, the “average optimal dose” value (aged monkeys [2]) is listed as “about 0.001 mg/kg” and the “aged monkeys with improved memory” value (aged monkeys [2]) is listed as 11/11. The “Delayed Response Performance (% change from placebo control)” value (aged monkeys [2]; [9]) was “+9%”, the “Delayed Response Performance (% change from placebo control)” value (aged monkeys [2]; [10]) was “+10%” and the “Delayed Response Performance (% change from placebo control)” value (aged monkeys [2]; [11]) was “+10%”. The “Delayed Response Performance (% change from placebo control)” value (aged monkeys [2]; [12]) was -6%, the “duration of memory effects” value (aged monkeys [2]; low doses) was “up to four days” and the “dose range in which effective” value (aged monkeys [2]) was “nanogram/kg range”. The “Percent Improvement” value (aged monkeys [2]; monkey #107) was 20%, the Optimal dose (aged monkeys [2]; monkey #107) was 10 µg/kg and the “Percent Improvement” value (aged monkeys [2]; monkey #113) was 23%. The Optimal dose (aged monkeys [2]; monkey #113) was 0.001 µg/kg, the “Percent Improvement” value (aged monkeys [2]; monkey #121) was 10% and the Optimal dose (aged monkeys [2]; monkey #121) was 0.001 µg/kg. For the same molecule, the “Percent Improvement” value (aged monkeys [2]; monkey #124) was 18%, the Optimal dose (aged monkeys [2]; monkey #124) was 0.1 µg/kg and the “Percent Improvement” value (aged monkeys [2]; monkey #343) was 13%. For the same molecule, the Optimal dose (aged monkeys [2]; monkey #343) was 0.01 µg/kg, the “Percent Improvement” value (aged monkeys [2]; monkey #444) was 13% and the Optimal dose (aged monkeys [2]; monkey #444) was 10 µg/kg. The “Percent Improvement” value (aged monkeys [2]; monkey #445) was 20%, the Optimal dose (aged monkeys [2]; monkey #445) was 1 µg/kg and the “Percent Improvement” value (aged monkeys [2]; monkey #446) was 10%. For the same molecule, the Optimal dose (aged monkeys [2]; monkey #446) was 10 µg/kg, the “Percent Improvement” value (aged monkeys [2]; monkey #447) was 20% and the Optimal dose (aged monkeys [2]; monkey #447) was 1 µg/kg. The “Percent Improvement” value (aged monkeys [2]; monkey #448) was 23%, the Optimal dose (aged monkeys [2]; monkey #448) was 0.01 µg/kg and the “Percent Improvement” value (aged monkeys [2]; monkey #449) was 20%. The Optimal dose (aged monkeys [2]; monkey #449) was 1 µg/kg, the “Sedation Score” value (aged monkeys [6]; rhesus monkey, in vivo) was 0 and the sedation scores (aged monkeys [6]; rhesus monkey, in vivo) was 0. The “potency relative to clonidine” value [8] was 1/10, the Ki (alpha-2I subtype) was 22.6 nM and the “Systolic Blood Pressure, change” value (aged monkeys [4]; dose .0001 mg/kg i.m.) was “+3 mm Hg”. For the same molecule, the “Systolic Blood Pressure, change” value (aged monkeys [4]; dose .001 mg/kg i.m.) was “+6 mm Hg”, the “Systolic Blood Pressure, change” value (aged monkeys [4]; dose .01 mg/kg i.m.) was -11 mm Hg and the “Systolic Blood Pressure, change” value (aged monkeys [4]; dose .05 mg/kg i.m.) was -21 mm Hg. For the same molecule, the “average change in systolic blood pressure” value (aged monkeys [4]; low, memory-improving doses) was “+6 mm Hg”.

In the case of `N[C@@H](Cc1ccc(O)c(O)c1)C(=O)O` [L-dopa], the “effect on behavioral deficit” value (rhesus monkeys) is listed as “pharmacologically reversed”.

In the case of `CN1CCc2cccc3c2[C@H]1Cc1ccc(O)c(O)c1-3` [apomorphine], the “effect on behavioral deficit” value (rhesus monkeys) is listed as “pharmacologically reversed”.
